Experimental data taken from ChEMBL document CHEMBL5212743, “Selectivity Literature for EUbOPEN Chemogenomics Library wave 3” (2023).
Each block holds one compound with its values, some of them ahead of it.

Key:
[1] = molecular target: Dual specificity tyrosine-phosphorylation-regulated kinase 1B (Homo sapiens, UniProt Q9Y463); test: Selectivity interaction (KinomeScan (DiscoverX)) EUB0000334a DYRK1B; conditions: at 1 µM
[2] = molecular target: T1, Gamma-aminobutyric acid receptor subunit alpha-1 (Homo sapiens) (UniProt P14867); test: (§1) Selectivity interaction (GPCR panel (PDSP screen)) EUB0000334a GABRA1; conditions: at 10 µM
T1 sequence (whole entry): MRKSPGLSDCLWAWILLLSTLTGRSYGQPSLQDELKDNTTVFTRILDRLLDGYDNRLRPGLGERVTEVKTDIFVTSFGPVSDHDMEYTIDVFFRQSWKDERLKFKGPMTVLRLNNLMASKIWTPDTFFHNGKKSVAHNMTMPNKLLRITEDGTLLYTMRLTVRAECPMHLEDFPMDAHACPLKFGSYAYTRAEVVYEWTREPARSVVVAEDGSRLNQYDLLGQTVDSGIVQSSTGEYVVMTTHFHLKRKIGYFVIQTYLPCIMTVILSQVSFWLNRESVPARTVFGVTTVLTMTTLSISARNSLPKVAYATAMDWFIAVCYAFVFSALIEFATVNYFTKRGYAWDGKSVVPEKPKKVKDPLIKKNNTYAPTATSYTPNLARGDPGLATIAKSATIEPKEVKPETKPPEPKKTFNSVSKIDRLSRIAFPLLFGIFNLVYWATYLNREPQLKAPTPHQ

[3] = molecular target: T1, Gamma-aminobutyric acid receptor subunit alpha-1 (Homo sapiens); test: as §1; conditions: at 10 µM; remark: listed apart in the source
[4] = molecular target: Rho-associated protein kinase 1 (Homo sapiens) (UniProt Q13464); test: Selectivity interaction (KinomeScan (DiscoverX)) EUB0000334a ROCK1; conditions: at 1 µM
[5] = molecular target: T2, Muscarinic acetylcholine receptor M2 (Homo sapiens) (UniProt P08172); test: Selectivity interaction (Eurofins-Panlabs panel) EUB0000295b CHRM2; conditions: at 10 µM
T2 sequence (whole entry): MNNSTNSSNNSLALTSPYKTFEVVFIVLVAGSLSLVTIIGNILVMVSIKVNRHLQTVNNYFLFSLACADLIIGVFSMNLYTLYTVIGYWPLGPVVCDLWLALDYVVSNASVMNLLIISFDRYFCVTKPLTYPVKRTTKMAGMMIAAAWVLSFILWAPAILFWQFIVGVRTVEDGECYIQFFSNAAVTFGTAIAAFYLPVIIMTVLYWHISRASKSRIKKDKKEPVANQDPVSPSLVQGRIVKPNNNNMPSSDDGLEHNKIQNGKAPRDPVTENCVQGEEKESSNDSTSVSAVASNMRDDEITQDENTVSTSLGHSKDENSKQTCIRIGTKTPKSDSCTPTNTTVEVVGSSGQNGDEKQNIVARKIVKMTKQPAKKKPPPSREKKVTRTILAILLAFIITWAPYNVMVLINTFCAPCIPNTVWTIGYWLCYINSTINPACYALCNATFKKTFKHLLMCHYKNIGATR

[6] = molecular target: SRSF protein kinase 2 (Homo sapiens) (UniProt P78362); test: Selectivity interaction (KinomeScan (DiscoverX)) EUB0000295b SRPK2; conditions: at 1 µM
[7] = molecular target: T3, Phosphatidylinositol 4,5-bisphosphate 3-kinase catalytic subunit delta isoform (Homo sapiens) (UniProt O00329); test: Selectivity interaction (KinomeScan (DiscoverX)) EUB0000295b PIK3CD; conditions: at 1 µM
T3 sequence (whole entry): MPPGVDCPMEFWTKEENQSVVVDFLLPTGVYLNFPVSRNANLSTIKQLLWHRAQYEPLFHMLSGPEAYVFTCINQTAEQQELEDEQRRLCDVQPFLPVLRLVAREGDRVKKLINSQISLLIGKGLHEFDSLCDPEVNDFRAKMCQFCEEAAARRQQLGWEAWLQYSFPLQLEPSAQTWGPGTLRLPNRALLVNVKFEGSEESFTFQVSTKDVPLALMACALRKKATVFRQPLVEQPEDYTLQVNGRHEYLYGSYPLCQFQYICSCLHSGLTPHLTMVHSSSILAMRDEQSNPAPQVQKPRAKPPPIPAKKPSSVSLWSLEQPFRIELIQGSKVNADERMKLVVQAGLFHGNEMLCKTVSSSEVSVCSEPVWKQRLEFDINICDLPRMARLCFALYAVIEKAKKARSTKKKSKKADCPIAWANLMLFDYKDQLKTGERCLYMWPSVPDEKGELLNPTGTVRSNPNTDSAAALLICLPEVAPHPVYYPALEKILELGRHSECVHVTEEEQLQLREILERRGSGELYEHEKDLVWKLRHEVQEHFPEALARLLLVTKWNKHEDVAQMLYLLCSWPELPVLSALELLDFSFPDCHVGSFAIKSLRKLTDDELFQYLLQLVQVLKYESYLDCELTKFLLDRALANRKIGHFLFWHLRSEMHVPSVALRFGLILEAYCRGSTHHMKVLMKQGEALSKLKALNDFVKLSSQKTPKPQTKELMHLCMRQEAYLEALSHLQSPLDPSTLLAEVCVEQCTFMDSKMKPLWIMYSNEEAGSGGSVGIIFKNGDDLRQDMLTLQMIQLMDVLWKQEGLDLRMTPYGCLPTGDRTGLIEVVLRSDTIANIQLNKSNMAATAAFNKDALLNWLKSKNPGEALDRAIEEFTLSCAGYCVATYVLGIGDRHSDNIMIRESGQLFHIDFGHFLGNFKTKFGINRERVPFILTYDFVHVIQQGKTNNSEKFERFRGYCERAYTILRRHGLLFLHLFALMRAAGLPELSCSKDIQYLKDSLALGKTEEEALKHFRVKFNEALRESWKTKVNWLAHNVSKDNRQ

[8] = molecular target: Myosin light chain kinase, smooth muscle (Homo sapiens) (UniProt Q15746); test: Selectivity interaction (KinomScan Ambit) EUB0000622a MYLK; conditions: at 10 µM
[9] = molecular target: ALK tyrosine kinase receptor (Homo sapiens, UniProt Q9UM73); test: Selectivity interaction (KinomScan Ambit) EUB0000622a ALK; conditions: at 10 µM
[10] = tested on: T4, Receptor-type tyrosine-protein kinase FLT3 (Homo sapiens), P36888 [D835Y]; test: Selectivity interaction (KinomScan Ambit) EUB0000622a FLT3; conditions: at 10 µM
T4 sequence (whole entry): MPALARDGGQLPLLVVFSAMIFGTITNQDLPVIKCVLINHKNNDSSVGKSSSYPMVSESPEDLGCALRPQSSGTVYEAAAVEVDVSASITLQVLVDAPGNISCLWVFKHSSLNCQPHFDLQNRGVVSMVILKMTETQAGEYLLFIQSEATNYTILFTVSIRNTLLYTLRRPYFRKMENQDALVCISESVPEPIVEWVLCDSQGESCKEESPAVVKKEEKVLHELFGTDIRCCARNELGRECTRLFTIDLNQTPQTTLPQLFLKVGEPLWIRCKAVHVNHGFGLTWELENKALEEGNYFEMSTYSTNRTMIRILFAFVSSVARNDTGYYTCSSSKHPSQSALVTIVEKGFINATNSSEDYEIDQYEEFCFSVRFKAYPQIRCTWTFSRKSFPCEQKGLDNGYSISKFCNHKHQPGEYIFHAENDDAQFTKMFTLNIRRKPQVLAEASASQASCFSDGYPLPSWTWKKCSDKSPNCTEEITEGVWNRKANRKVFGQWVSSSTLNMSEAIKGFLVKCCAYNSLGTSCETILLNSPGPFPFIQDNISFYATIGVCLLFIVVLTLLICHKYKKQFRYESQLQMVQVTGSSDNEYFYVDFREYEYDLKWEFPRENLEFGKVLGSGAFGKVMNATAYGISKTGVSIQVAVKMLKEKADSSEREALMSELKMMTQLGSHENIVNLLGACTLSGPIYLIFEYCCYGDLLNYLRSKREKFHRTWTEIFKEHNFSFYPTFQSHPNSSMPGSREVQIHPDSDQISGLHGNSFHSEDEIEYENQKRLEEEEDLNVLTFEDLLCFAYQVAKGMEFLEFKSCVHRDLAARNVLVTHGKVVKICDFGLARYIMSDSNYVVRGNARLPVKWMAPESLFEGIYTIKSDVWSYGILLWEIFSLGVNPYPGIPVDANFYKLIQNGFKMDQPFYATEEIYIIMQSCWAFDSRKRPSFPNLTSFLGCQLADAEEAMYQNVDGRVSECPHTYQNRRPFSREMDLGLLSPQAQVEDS

[11] = molecular target: RAF proto-oncogene serine/threonine-protein kinase (Homo sapiens) (UniProt P04049); conditions: at 1 µM
[12] = molecular target: Histone-lysine N-methyltransferase NSD3 (Homo sapiens) (UniProt Q9BZ95); test: Selectivity interaction (Methyltransferase panel) EUB0000198b NSD3; conditions: at 10 µM
Sequence of Histone-lysine N-methyltransferase NSD3 (Homo sapiens) (Q9BZ95 whole entry): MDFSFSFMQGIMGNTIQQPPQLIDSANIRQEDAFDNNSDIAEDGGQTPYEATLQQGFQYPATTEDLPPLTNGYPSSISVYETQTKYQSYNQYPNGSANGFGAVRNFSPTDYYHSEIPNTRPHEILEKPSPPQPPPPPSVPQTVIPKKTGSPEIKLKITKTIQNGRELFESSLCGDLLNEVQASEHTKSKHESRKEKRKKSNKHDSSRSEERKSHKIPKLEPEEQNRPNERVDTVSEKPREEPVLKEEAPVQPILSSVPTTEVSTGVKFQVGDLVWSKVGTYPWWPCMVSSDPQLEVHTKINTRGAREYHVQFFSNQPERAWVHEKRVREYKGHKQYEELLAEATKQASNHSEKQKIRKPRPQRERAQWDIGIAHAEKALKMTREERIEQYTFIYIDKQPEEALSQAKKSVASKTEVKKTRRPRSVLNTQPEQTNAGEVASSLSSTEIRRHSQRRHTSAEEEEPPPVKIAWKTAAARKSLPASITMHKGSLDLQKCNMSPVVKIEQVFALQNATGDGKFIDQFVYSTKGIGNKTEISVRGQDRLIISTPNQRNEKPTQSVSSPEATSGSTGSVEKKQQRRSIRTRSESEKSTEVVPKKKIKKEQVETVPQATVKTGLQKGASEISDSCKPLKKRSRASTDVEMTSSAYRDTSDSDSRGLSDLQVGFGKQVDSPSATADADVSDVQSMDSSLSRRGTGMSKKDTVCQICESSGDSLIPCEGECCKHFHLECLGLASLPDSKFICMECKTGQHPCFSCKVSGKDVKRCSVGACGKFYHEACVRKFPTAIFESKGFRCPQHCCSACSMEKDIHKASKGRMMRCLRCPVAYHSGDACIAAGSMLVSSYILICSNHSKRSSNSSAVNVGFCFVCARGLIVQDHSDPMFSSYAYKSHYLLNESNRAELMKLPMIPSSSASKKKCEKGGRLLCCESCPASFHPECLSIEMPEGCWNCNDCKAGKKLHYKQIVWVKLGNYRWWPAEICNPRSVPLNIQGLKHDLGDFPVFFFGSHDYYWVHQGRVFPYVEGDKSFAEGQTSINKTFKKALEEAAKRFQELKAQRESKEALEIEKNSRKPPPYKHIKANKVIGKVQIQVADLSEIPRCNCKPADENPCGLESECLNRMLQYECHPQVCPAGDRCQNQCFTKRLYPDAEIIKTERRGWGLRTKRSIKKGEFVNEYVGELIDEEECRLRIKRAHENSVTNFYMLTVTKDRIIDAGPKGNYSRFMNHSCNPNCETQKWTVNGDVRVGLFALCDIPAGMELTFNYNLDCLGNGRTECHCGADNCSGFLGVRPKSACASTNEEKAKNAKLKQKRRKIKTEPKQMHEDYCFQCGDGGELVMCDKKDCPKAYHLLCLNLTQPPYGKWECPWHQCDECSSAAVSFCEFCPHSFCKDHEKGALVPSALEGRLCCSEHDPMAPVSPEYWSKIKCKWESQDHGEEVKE

Sequence of Myosin light chain kinase, smooth muscle (Homo sapiens) (Q15746 whole entry): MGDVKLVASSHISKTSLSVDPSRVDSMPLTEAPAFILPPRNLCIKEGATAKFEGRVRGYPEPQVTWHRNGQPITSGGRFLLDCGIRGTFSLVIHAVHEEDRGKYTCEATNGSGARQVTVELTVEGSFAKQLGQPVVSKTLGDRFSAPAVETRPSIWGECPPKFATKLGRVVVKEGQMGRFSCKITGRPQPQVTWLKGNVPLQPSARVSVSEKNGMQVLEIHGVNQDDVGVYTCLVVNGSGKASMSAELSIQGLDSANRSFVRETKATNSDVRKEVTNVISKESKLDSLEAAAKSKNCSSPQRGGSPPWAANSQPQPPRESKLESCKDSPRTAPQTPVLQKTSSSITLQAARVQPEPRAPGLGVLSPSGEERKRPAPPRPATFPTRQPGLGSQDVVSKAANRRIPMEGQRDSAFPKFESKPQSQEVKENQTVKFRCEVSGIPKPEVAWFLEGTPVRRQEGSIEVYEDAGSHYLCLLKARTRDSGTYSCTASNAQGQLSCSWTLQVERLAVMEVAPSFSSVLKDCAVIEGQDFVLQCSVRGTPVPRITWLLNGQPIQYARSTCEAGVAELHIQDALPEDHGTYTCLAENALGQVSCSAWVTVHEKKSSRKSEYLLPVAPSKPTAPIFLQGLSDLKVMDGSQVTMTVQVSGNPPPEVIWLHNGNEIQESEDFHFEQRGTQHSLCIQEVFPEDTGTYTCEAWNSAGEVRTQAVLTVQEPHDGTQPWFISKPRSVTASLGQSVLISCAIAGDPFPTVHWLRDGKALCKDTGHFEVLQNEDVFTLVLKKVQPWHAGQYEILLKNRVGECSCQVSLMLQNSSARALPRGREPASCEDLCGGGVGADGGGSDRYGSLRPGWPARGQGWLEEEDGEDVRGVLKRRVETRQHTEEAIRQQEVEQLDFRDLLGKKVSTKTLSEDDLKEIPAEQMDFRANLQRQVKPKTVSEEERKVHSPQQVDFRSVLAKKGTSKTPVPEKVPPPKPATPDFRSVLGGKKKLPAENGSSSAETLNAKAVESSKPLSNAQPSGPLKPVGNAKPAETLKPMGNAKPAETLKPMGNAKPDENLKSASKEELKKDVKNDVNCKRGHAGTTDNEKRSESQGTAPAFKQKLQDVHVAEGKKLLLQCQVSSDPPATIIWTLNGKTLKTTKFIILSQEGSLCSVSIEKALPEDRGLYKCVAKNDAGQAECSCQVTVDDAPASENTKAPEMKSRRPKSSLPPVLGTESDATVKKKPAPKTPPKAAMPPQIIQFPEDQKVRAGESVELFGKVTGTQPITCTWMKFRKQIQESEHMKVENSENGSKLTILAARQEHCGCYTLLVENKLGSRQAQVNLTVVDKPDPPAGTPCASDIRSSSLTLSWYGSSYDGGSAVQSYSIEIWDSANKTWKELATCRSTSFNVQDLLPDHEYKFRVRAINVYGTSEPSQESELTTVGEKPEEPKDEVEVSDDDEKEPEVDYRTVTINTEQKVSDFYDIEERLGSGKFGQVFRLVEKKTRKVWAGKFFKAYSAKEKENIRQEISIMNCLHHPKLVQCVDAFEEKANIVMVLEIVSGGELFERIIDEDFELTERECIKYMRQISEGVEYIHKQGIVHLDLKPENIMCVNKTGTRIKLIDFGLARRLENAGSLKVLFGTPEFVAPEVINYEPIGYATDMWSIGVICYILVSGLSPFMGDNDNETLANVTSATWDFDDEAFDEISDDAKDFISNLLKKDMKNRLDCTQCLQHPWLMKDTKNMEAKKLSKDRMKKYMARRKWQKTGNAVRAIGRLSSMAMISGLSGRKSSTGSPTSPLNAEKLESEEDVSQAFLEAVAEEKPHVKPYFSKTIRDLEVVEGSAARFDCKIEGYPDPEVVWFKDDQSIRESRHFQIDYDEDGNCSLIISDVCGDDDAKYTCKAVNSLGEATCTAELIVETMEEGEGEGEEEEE
Sequence of ALK tyrosine kinase receptor (Q9UM73 19-1620 limits assumed): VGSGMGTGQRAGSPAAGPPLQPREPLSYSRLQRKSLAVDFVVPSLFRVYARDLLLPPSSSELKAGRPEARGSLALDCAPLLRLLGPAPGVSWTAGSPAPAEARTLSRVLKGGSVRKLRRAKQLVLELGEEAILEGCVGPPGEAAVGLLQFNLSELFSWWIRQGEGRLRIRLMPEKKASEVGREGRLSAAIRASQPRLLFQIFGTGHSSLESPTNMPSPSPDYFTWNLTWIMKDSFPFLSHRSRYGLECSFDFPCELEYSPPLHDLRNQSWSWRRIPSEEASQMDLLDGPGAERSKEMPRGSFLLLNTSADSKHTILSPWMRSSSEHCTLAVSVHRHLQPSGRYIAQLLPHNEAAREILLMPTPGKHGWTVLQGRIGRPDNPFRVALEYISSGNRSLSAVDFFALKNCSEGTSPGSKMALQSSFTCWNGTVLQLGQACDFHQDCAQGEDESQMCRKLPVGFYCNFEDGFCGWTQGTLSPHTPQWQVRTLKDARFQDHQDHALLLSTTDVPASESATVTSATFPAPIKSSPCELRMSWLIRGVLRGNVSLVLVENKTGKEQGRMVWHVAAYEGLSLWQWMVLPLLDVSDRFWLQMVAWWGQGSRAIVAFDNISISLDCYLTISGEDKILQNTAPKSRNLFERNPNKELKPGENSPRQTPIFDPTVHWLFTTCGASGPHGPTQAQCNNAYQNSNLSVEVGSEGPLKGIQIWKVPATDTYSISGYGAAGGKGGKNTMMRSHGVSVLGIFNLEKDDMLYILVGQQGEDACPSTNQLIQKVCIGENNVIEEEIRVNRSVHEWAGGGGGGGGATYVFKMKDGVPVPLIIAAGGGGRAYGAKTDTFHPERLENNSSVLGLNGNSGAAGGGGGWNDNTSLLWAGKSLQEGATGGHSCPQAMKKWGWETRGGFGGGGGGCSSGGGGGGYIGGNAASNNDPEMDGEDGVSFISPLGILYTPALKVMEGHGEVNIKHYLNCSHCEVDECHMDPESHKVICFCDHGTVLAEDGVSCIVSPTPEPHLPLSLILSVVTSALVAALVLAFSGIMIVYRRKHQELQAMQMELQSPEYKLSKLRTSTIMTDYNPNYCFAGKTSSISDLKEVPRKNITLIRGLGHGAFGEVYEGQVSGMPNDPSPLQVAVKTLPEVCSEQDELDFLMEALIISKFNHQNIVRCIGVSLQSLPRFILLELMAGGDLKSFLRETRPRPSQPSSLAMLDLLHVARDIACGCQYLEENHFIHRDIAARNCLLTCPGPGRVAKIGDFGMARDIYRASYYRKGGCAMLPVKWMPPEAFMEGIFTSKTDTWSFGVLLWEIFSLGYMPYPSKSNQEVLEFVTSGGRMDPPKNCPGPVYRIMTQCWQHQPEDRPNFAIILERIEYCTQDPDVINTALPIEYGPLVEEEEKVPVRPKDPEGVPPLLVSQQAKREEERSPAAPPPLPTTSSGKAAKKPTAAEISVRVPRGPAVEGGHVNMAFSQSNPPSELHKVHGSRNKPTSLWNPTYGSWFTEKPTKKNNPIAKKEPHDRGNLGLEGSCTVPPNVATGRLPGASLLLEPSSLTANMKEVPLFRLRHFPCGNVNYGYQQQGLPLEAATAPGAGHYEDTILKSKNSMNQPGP

% of control [1]: 36% | inhibition [2]: 41% | inhibition [3]: 45% | % of control [4]: 6%
Structure (SMILES): CN([C@@H]1CCc2c(CC(=O)O)c3cc(S(C)(=O)=O)ccc3n2C1)S(=O)(=O)c1ccc(F)cc1

% of inhibition [5]: 67% | % of control [6]: 0% | % of control [7]: 34%
Structure (SMILES): CC(=O)N1CCC(c2ccc(C(=O)NC(=N)N)cc2C(F)(F)F)CC1

% of control [8]: < 50% | % of control [9]: < 50% | % of control [10]: < 50%
Structure (SMILES): O=C(Nc1cccnc1)c1cc(-c2ccnc(F)c2)ccc1OCc1ccccc1

% of control [11]: 8%
Structure (SMILES): OCCn1cc(-c2ccc3c(c2)CCC3=NO)c(-c2ccncc2)n1

% of inhibition [12]: 75%
Structure (SMILES): O=C(NC[C@H](O)CN1CCc2ccccc2C1)c1ccnc(NC2CCC2)c1
